These are literature values, as cited in paper PMC6376154 (International Journal for Parasitology: Drugs and Drug …, 2019).

The data set deals with P. falciparum 3D7 asexual blood stage. To be noted: cited from earlier work.
Where [1] appears, read: MMV Malaria Box data sheet, ref MMV data sheets.
[2] abbreviates: MMV Malaria Box data sheet, ref MMV data sheets, read-out: EC50_nM.
Where [3] appears, read: source GSK, ref ChEMBL_NTD, read-out: CHEMBL EC50.
Setting [4] is: MMV Malaria Box sheet, ref MMV data sheets.
Where [5] appears, read: MMV Malaria Box sheet, ref MMV data sheets, read-out: EC50_nM.
Where [6] appears, read: MMV Malaria Box data sheet (supplement mmc2.xls), ref MMV data sheet.
Where [7] appears, read: MMV Malaria Box data sheet (supplement mmc2.xls), ref MMV data sheet, read-out: EC50_nM.
Setting [8] is: value(s) per source (GSK, GNF, StJude), separated by semicolon, ref ChEMBL-NTD, read-out: CHEMBL EC50.
Where [9] appears, read: ChEMBL-NTD value per source (GNF, GSK, StJude), several values in a cell follow the order of the sources, read-out: CHEMBL EC50.
[10] abbreviates: source GNF, ref ChEMBL_NTD, read-out: CHEMBL EC50.

Where two headings read alike, the source gives them in different places.

Consider `CCC1(C)CC(CCNCc2ccccc2O)(c2ccc(C)cc2)CCO1` (stereo not drawn) [MMV019406], for which, under setting [1], the “percent_inh @ 5 uM” value is reported as 97%. For the same compound, the EC50 by setting is: under setting [2], 142 nM; under setting [3], 38.8 nM.

On to `c1ccc2c(NCCCCCCNc3c4c(nc5ccccc35)CCCC4)c3c(nc2c1)CCCC3` [MMV019555], for which, under setting [4], the “percent_inh @ 5 uM” value is listed as 100%. Besides, the EC50 reads like this: under setting [5], 376 nM; under setting [3], 196 nM.

As to `COc1ccc(N2CCN(C(CNC(=O)C3CCCCC3)c3ccc4c(c3)OCO4)CC2)cc1` (stereo not drawn) [MMV019662], the “percent_inh @ 5 uM” value under setting [6] is 97%. Besides, the EC50 was 1110 nM under setting [7] and 566 nM under setting [8].

As for `O=C(Nc1ccc(N2CCN(Cc3ccccc3)CC2)cc1)c1cccs1` [MMV019670], the “percent_inh @ 5 uM” value under setting [6] is given as 59%. The EC50 is, setting by setting: under setting [7], 1080 nM; under setting [8], 769 nM.

Take `COc1ccc(C2NCCc3c2[nH]c2ccccc32)cc1CN1CCN(c2ccc(F)cc2)CC1` (stereo not drawn) [MMV019690]: the “percent_inh @ 5 uM” value under setting [4] is 97%. In addition, the EC50 reads like this: under setting [5], 934 nM; under setting [3], 776 nM.

`O=C(Nc1ccc(N2CCCCC2)c(Cl)c1)c1ccc(Br)o1` [MMV019700]: the “percent_inh @ 5 uM” value under setting [6] is 96%. Also, the EC50 is 735 nM under setting [7] and 549 nM under setting [8].

For the compound `Cc1[nH]c(-c2ccc(F)cc2)cc1C(=O)NC1CCN(Cc2ccccc2)CC1` [MMV019738], the “percent_inh @ 5 uM” value under setting [6] is recorded as 99%. Moreover, the EC50 is, setting by setting: under setting [7], 771 nM; under setting [8], 1130 nM.

Take `Cc1ccc(C)c(Cn2c(N3CCC(C(=O)NCc4cccs4)CC3)nc3ccccc32)c1` [MMV019741]: under setting [4], the “percent_inh @ 5 uM” value was 97%. Further, the EC50 is 1330 nM under setting [5] and 938 nM under setting [3].

Take `Cc1ccc(Cl)cc1N1CCN(CCCNC(=O)C2CCN(c3nc4ccccc4[nH]3)CC2)CC1` [MMV019746]: the “percent_inh @ 5 uM” value under setting [6] is listed as 97%. Also, the EC50 is, setting by setting: under setting [7], 1330 nM; under setting [8], 895 nM.

As for `COc1ccc(C(=O)Nc2ccc3nc(N4CCCCC4)cc(C)c3c2)cc1OC` [MMV019758], the “percent_inh @ 5 uM” value under setting [6] is reported as 76%. Also, the EC50 under setting [8] was 994 nM.

As to `COc1cccc(C(=O)Nc2ccc(-c3nc4ccccc4[nH]3)cc2)c1` [MMV019762], under setting [4], the “percent_inh @ 5 uM” value is 83%. Under setting [3], the EC50 was 802 nM.

Consider `Cc1cc(C)c2nc(N3CCC(C(=O)NCCCN4CCC(N5CCCCC5)CC4)CC3)sc2c1` [MMV019780], for which the “percent_inh @ 5 uM” value under setting [6] is recorded as 98%. Moreover, the EC50 under setting [7] is 697 nM and the EC50 under setting [8] was 838 nM.

As for `Fc1ccc2[nH]c3c(NCCCN4CCOCC4)ncnc3c2c1` [MMV019871], the “percent_inh @ 5 uM” value under setting [1] is given as 98%. For the same compound, the EC50 reads like this: under setting [2], 345 nM; under setting [3], 714 nM.

As to `O=C(NC1CCN(Cc2ccccc2)CC1)c1cc(C(=O)NC2CCN(Cc3ccccc3)CC2)cc(C(=O)NC2CCN(Cc3ccccc3)CC2)c1` [MMV019881], the EC50 under setting [9] is 1040 nM.

For `Clc1cc(Br)ccc1-c1ccc(CNCC2CCNCC2)o1` [MMV019918], the “percent_inh @ 5 uM” value under setting [6] is recorded as 96%. In addition, the EC50 under setting [7] was 800 nM and the EC50 under setting [8] is 1510 nM.

For the compound `O=C(NCCCN1CCC(N2CCCCC2)CC1)C1=Cc2cc(Br)ccc2OC1` [MMV019995], under setting [4], the “percent_inh @ 5 uM” value is on record as 99%. The EC50 under setting [5] is 563 nM and the EC50 under setting [3] is 853 nM.

As to `Cc1cc(N(C)C)nc(Nc2ccc(NC(=O)Nc3ccccc3)cc2)n1` [MMV020243], under setting [9], the EC50 is 134 nM.

As for `O=C(NC1CCN(Cc2ccccc2)CC1)c1cc(-c2ccncc2)nc2ccc(Cl)cc12` [MMV020275], the “percent_inh @ 5 uM” value under setting [6] is 92%. Also, the EC50 reads like this: under setting [7], 1020 nM; under setting [8], 920 nM.

Consider `COc1ccc(-c2cn3c(C(=O)Nc4ccccc4Cl)c(-c4ccccc4)c4c3n2CCCC4)cc1` [MMV020403], for which the EC50 under setting [9] is 792 nM.

Turning to `CCn1c(CN2CCN(Cc3ccccc3)CC2)nc2cc(NC(=O)c3cccs3)ccc21` [MMV020439], the “percent_inh @ 5 uM” value under setting [1] is given as 97%. Besides, the EC50 reads like this: under setting [2], 512 nM; under setting [3], 402 nM.

With `O=C(NC1CCN(Cc2ccccc2)CC1)c1cc(-c2cccnc2)nc2ccc(Cl)cc12` [MMV020490], under setting [4], the “percent_inh @ 5 uM” value is reported as 91%. Further, the EC50 runs as follows: under setting [5], 1010 nM; under setting [3], 759 nM.

Regarding `CC1CN(C(=O)c2sc3ccccc3c2Cl)CC(C)O1` (stereo not drawn) [MMV020492], the “percent_inh @ 5 uM” value under setting [1] is reported as 95%. The EC50 runs as follows: under setting [2], 25.5 nM; under setting [3], 87.9 nM.

As for `CNCCCNc1ccnc2cc(Cl)ccc12` [MMV020500], the “percent_inh @ 5 uM” value under setting [1] is on record as 98%. Besides, the EC50 runs as follows: under setting [2], 82.2 nM; under setting [3], 62.4 nM.

`CN(C)CCCNCc1ccc(-c2ccc(F)c(Cl)c2)o1` [MMV020505]: the “percent_inh @ 5 uM” value under setting [4] is recorded as 96%. Further, the EC50 is 876 nM under setting [5] and 802 nM under setting [3].

With `CCN1CCN(Cc2ccc(NC(=O)c3cc4ccc5cccnc5c4[nH]3)cc2)CC1` [MMV020548], the “percent_inh @ 5 uM” value under setting [1] was 70%. Also, the EC50 is, setting by setting: under setting [2], 361 nM; under setting [3], 848 nM.

With `CC1CCN(Cc2ccc(NC(=O)c3cc4ccc5cccnc5c4[nH]3)cc2)CC1` [MMV020549], the “percent_inh @ 5 uM” value under setting [1] is listed as 97%. Besides, the EC50 was 274 nM under setting [2] and 779 nM under setting [3].

In the case of `O=C(Nc1ccc(CN2CCOCC2)cc1)c1ccc(-c2cc(Cl)ccc2Cl)o1` [MMV020651], the “percent_inh @ 5 uM” value under setting [4] is reported as 97%. Moreover, the EC50 is, setting by setting: under setting [5], 1940 nM; under setting [3], 613 nM.

On to `CCC(O)c1ccc(Br)cc1NC(=O)c1cccc(Cl)c1` (stereo not drawn) [MMV020654], for which, under setting [6], the “percent_inh @ 5 uM” value is 97%. For the same compound, the EC50 is, setting by setting: under setting [7], 640 nM; under setting [8], 1020 nM.

Turning to `CC(=O)Nc1nnc(SCc2c(C)cc(C(C)(C)C)cc2C)s1` [MMV020700], under setting [6], the “percent_inh @ 5 uM” value was 96%. The EC50 under setting [7] is 871 nM and the EC50 under setting [8] is 704 nM.

As for `COc1cc(-c2nc(-c3ccccc3)c(-c3ccccc3)[nH]2)cc(OC)c1O` [MMV020750], the EC50 under setting [9] is 774 nM.

Consider `Oc1ccccc1CNCC12CC3CC(CC(C3)C1)C2` [MMV020788], for which, under setting [1], the “percent_inh @ 5 uM” value is recorded as 96%. For the same compound, the EC50 was 22.6 nM under setting [2] and 279 nM under setting [3].

On to `COc1ccc(Br)cc1C1Nc2ccc3ccccc3c2C2=C1C(=O)CC(c1ccccc1)C2` (stereo not drawn) [MMV020885], for which the “percent_inh @ 5 uM” value under setting [1] is listed as 95%. The EC50 is, setting by setting: under setting [2], 180 nM; under setting [3], 590 nM.

For `Cc1ccc(-c2nc3ccccc3o2)cc1NCc1cc(Cc2ccccc2)ccc1O` [MMV020912], the EC50 under setting [9] is 1030 nM.

Regarding `CCC(=O)Nc1nnc(Cc2ccc(OC)c(OC)c2)s1` [MMV020942], under setting [4], the “percent_inh @ 5 uM” value is listed as 47%. Also, the EC50 under setting [3] is 910 nM.

As for `COc1cc(SC)ccc1C(=O)N1CCCC(C)C1` (stereo not drawn) [MMV056726], where the note is “2 uM, MMV Malaria Box data sheet (supplement mmc2.xls), ref MMV data sheet”, the “percent_inh @ 2 uM” value was 45%. The EC50 reads like this: under setting [7], 4000 nM; under setting [8], 9810 nM.

On to `CN(C)c1ccc(N=Cc2ccc(N3CCOCC3)cc2)cc1` [MMV073843], for which the EC50 under setting [9] is 175 nM.

For `CCOc1ccc(C2N(C)c3ccccc3N2C)cc1` [MMV075490], the “percent_inh @ 5 uM” value under setting [6] is on record as 72%. The EC50 under setting [7] is 941 nM.

In the case of `COc1cc2c(cc1OC)C1=NNC(=O)C1=NC(C)(C)C2` [MMV084940], the EC50 was 1040 nM under setting [5] and 1580 nM under setting [10].

Regarding `COc1ccccc1N=C1C(=O)c2ccccc2C(O)=C1N1CCCCC1` [MMV085203], the “percent_inh @ 5 uM” value under setting [1] is 98%. For the same compound, the EC50 is 5.3 nM under setting [2] and 28 nM under setting [10].

For the compound `CCOc1ccc(-n2cc(-c3ccccc3)c3c(SCc4cc(C)ccc4C)ncnc32)cc1` [MMV085471], the “percent_inh @ 5 uM” value under setting [4] is given as 97%. The EC50 runs as follows: under setting [5], 1700 nM; under setting [10], 2010 nM.

For the compound `CCCCCC(=O)N1c2ccccc2N=C2CC(c3ccc(OC)c(OC)c3)CC(O)=C2C1c1ccc(C(F)(F)F)cc1` (stereo not drawn) [MMV085583], the “percent_inh @ 5 uM” value under setting [1] is on record as 100%. Further, the EC50 is, setting by setting: under setting [2], 237 nM; under setting [10], 107 nM.

`Cc1ccc(C(=O)c2oc3ccc4c(C)cc(=O)oc4c3c2C)cc1` [MMV086103]: the EC50 under setting [9] was 1030 nM.

Take `COc1cc(CNCCc2ccc(Cl)cc2)cc(OC)c1O` [MMV128432]: the EC50 under setting [9] is 6890 nM.

On to `CC(C)(C)c1ccc(C(=O)Nc2nc3ccccc3s2)cc1` [MMV142383], for which the “percent_inh @ 5 uM” value under setting [6] is on record as 81%. The EC50 under setting [8] is 15000 nM.

With `COc1ccc2nc(C)cc(Nc3ccccc3O)c2c1` [MMV274073], the EC50 under setting [7] is 686 nM.

Consider `CCn1nc(-c2ccc(C(=O)OC)cc2)nc2c(=O)n(C)c(=O)nc1-2` [MMV306025], for which the EC50 under setting [7] was 693 nM.

As for `CCOc1ccccc1CN1CCc2nc3cc(C(C)(C)C)nn3c(O)c2C1` [MMV396595], under setting [5], the EC50 is 1010 nM.

For `CCOc1c(Cl)cc(CNCC(O)c2ccccc2)cc1OC` (stereo not drawn) [MMV396632], the EC50 under setting [5] is 1050 nM.

As to `CCOc1cc(CNC(C)C(O)c2ccccc2)cc(Cl)c1OCC` (stereo not drawn) [MMV396633], under setting [7], the EC50 is 1240 nM.

Turning to `Cc1cc(N2CCCC2)nc(Nc2ccc(NC(=O)CCc3ccccc3)cc2)n1` [MMV396669], the EC50 under setting [5] was 1070 nM.

For `O=C(NCC(c1ccsc1)N1CCCCCC1)c1ccc(C(F)(F)F)cc1` (stereo not drawn) [MMV396672], the EC50 under setting [2] is 433 nM.

Turning to `O=C(CSc1nccn2nc(-c3ccccc3)cc12)Nc1cc(C(F)(F)F)ccc1Cl` [MMV396678], under setting [2], the EC50 was 218 nM.

As for `COc1ccc(-c2cc3c(SCC(=O)Nc4cc(C(F)(F)F)ccc4Cl)nccn3n2)cc1` [MMV396679], the EC50 under setting [2] was 89.9 nM.

`Cc1ccc(-c2cc3c(SCC(=O)Nc4cc(C(F)(F)F)ccc4Cl)nccn3n2)cc1` [MMV396680]: the EC50 under setting [2] is 92.8 nM.
